Data on 2 molecules can be found in patent US12150935B1, “3-(3-(1,3-dioxoisoindolin-2-yl) propyl)-5-(4-fluorobenzylidene) thiazolidine-2,4-dione as a potential antitumor and apoptotic inducer” (IMAM MOHAMMAD IBN SAUD ISLAMIC UNIVERSITY, priority 2024, dated 2024).

Series [1] deals with triple-negative breast cancer (MDA-MB-468). Kind of series: Growth inhibition of cancerous cells, MDA-MB-468. It counts as cell-based. The following applies: Homo sapiens, concentration of 100 μg/mL, in vitro, read-out: growth inhibition percentage. The method, then: (§1) The compound of Formula I was tested for its antitumor activity against various cancer cell lines, in vitro, in non-small cell lung cancer (A549), colorectal carcinoma (HCT116), prostate cancer (PC3), pharynx squamous carcinoma (FaDu), triple-negative breast cancer (MDA-MB-468), cervical cancer (HeLa), and human oral epithelial normal cell line (OEC).

A further series relates to prostate cancer (PC3). Kind of series: Growth inhibition of cancerous cells, PC3. It counts as cell-based. The conditions noted are these: Homo sapiens, concentration of 100 μg/mL, in vitro, read-out: growth inhibition percentage. As for the experimental part: as §1
Series [2] has as its system human oral epithelial normal cell line (OEC). Kind of series: Growth inhibition of normal cells, OEC. It counts as cell-based. The conditions noted are these: 100 μg/mL, in vitro, read-out: growth inhibition percentage. The method, then: as §1
The test system of series [3] is human non-small cell lung cancer (A549). Description: Growth inhibition of cancerous cells, A549. It counts as cell-based. The following applies: concentration of 100 μg/mL, in vitro, read-out: growth inhibition percentage. The method, then:
as §1

The next series concerns cervical cancer (HeLa). Kind of series: Growth inhibition of cancerous cells, HeLa. The following applies: Homo sapiens, concentration of 100 μg/mL, in vitro, read-out: growth inhibition percentage. It counts as cell-based. The method, then: as §1
Series [4] deals with pharynx squamous carcinoma (FaDu). Description: Growth inhibition of cancerous cells, FaDu. It is filed as cell-based. The following applies: Homo sapiens, concentration of 100 μg/mL, in vitro, read-out: growth inhibition percentage. The method, then: as §1
The subject of series [5] is colorectal carcinoma (HCT116). Description: Growth inhibition of cancerous cells, HCT116. It is filed as cell-based. The following applies: Homo sapiens, HCT-116, concentration of 100 μg/mL, in vitro, read-out: growth inhibition percentage. The method, then:
as §1

As a reminder, the inhibition is the relative decrease from the control value, in per cent. One may read the melting point as the temperature of the solid-liquid transition. In turn, `O=C1S/C(=C/c2ccc(F)cc2)C(=O)N1CCCN1C(=O)c2ccccc2C1=O` [Formula I, 3-(3-(1,3-Dioxoisoindolin-2-yl)propyl)-5-(4-fluorobenzylidene) thiazolidine-2,4-dione] returned a melting point of 233 to 234 °C. Also, the inhibition at 100 µg/mL in series [1] was determined as 87.8%. In the series on prostate cancer (PC3), the inhibition at 100 µg/mL was 84.3%. Besides, the inhibition at 100 µg/mL in series [2] was 61.2%. Besides, the inhibition at 100 µg/mL in series [3] came to 79.1%. Also, in the series with cervical cancer (HeLa), the inhibition at 100 µg/mL stood at 73.1%. The inhibition at 100 µg/mL in series [4] is 86.8%. In series [5], the inhibition at 100 µg/mL was 79.3%.

For `COc1cccc2c1C(=O)c1c(O)c3c(c(O)c1C2=O)C[C@@](O)(C(=O)CO)C[C@@H]3O[C@H]1C[C@H](N)[C@H](O)[C@H](C)O1` [doxorubicin, reference compound], in series [2], the inhibition at 100 µg/mL came out at 57.9%.
